ChEMBL document CHEMBL4823252 (J Med Chem, 2021)
Activity calls are given as the source filed them. No cut-off for these calls is given here.

Experiments:
MV4-11 [1] = assay: Induction of apoptosis in human MV4-11 cells assessed as necrotic cells at 100 nM incubated for 24 hrs by flow cytometry (reference value: 0.25%); type: functional
MOLM-13 [2] = assay: Induction of apoptosis in human MOLM-13 cells assessed as viable cells at 1 nM incubated for 24 hrs by flow cytometry (reference value: 92.83%); type: functional; conditions: read-out: Activity
MV4-11 [3] = assay: Induction of apoptosis in human MV4-11 cells assessed as viable cells at 1 nM incubated for 24 hrs by flow cytometry (reference value: 98.26%); type: functional; conditions: read-out: Activity
MV4-11 [4] = assay: Induction of cell cycle arrest in human MV4-11 cells assessed as accumulation at S phase at 100 nM incubated for 24 hrs by flow cytometry (reference value: 16.31%); type: functional
MOLM-13 [5] = assay: Antiproliferative activity against human sunitinib-resistant MOLM-13 cells at 111 nM incubated for 72 hrs by CCK8 assay relative to control; type: functional
MV4-11 [6] = assay: Induction of apoptosis in human MV4-11 cells assessed as necrotic cells at 1 nM incubated for 24 hrs by flow cytometry (reference value: 0.25%); type: functional
MOLM-13 [7] = assay: Antiproliferative activity against human quizartinib-resistant MOLM-13 cells at 1000 nM incubated for 72 hrs by CCK8 assay relative to control; type: functional
MV4-11 [8] = assay: Induction of cell cycle arrest in human MV4-11 cells assessed as accumulation at S phase at 10 nM incubated for 24 hrs by flow cytometry (reference value: 16.31%); type: functional
MOLM-13 [9] = assay: Antiproliferative activity against human MOLM-13 cells incubated for 72 hrs by Cell Counting Kit-8 assay; type: functional, cell-based; conditions: MOLM-13, 72 h
MOLM-13 [10] = assay: Antiproliferative activity against human sunitinib-resistant MOLM-13 cells at 4 nM incubated for 72 hrs by CCK8 assay relative to control; type: functional
MOLM-13 [11] = assay: Antiproliferative activity against human quizartinib-resistant MOLM-13 cells at 12 nM incubated for 72 hrs by CCK8 assay relative to control; type: functional
MOLM-13 [12] = assay: Induction of apoptosis in human MOLM-13 cells assessed as necrotic cells at 100 nM incubated for 24 hrs by flow cytometry (reference value: 0.45%); type: functional
MV4-11 [13] = assay: Induction of apoptosis in human MV4-11 cells assessed as early apoptotic cells at 1 nM incubated for 24 hrs by flow cytometry (reference value: 0.31%); type: functional
[14] = MRT (0 to last) in Sprague-Dawley rat at 10 mg/kg, po; type: ADME, organism-based; conditions: in vivo
[15] = biological target: Receptor-type tyrosine-protein kinase FLT3 (Homo sapiens) (UniProt P36888); assay: Inhibition of FLT3 in human MOLM-13 cells assessed as reduction in STAT5 phosphorylation incubated for 2 hrs by Western blot analysis; type: cell-based
MV4-11 [16] = assay: Induction of cell cycle arrest in human MV4-11 cells assessed as accumulation at sub-G1 phase at 100 nM incubated for 24 hrs by flow cytometry (reference value: […]%); type: functional
MOLM-13 [17] = assay: Induction of apoptosis in human MOLM-13 cells incubated for 24 hrs by flow cytometry; type: functional, cell-based
[18] = AUC (0 to infinity) in Sprague-Dawley rat at 10 mg/kg, po; type: ADME, organism-based; parameters: route oral, time infinity, dose 10 mg/kg; conditions: in vivo
MOLM-13 [19] = assay: Antitumor activity against human MOLM-13 cells xenografted in po dosed mouse assessed as tumor growth inhibition administered for 20 days measured once every 2 days; type: functional, organism-based; conditions: time 20.0 day
MV4-11 [20] = assay: Antitumor activity against human MV4-11 cells xenografted in po dosed mouse assessed as tumor growth inhibition administered for 20 days measured once every 2 days; type: functional, organism-based; conditions: time 20.0 day
[21] = Toxicity in mouse xenografted with human MOLM-13 cells assessed as effect on kidney at 10 to 40 mg/kg, po administered for 20 days by hematoxylin and eosin staining assay; type: organism-based; conditions: in vivo, 480 h, dose 10-40 mg/kg, time 20 day
[22] = biological target: Receptor-type tyrosine-protein kinase FLT3 (Homo sapiens) (UniProt P36888); assay: Inhibition of FLT3 in human MOLM-13 cells assessed as reduction in autophosphorylation at tyr589/591 residue incubated for 2 hrs by Western blot analysis; type: cell-based
[23] = Cmax in Sprague-Dawley rat at 10 mg/kg, po; type: ADME, organism-based; parameters: route oral, dose 10 mg/kg; conditions: in vivo
[24] = biological target: Vascular endothelial growth factor receptor 1 (Homo sapiens, UniProt P17948); assay: Inhibition of VEGFR1 (unknown origin) incubated for 30 mins in presence of ATP by mobility shift assay
Chain of Vascular endothelial growth factor receptor 1 (P17948 whole entry): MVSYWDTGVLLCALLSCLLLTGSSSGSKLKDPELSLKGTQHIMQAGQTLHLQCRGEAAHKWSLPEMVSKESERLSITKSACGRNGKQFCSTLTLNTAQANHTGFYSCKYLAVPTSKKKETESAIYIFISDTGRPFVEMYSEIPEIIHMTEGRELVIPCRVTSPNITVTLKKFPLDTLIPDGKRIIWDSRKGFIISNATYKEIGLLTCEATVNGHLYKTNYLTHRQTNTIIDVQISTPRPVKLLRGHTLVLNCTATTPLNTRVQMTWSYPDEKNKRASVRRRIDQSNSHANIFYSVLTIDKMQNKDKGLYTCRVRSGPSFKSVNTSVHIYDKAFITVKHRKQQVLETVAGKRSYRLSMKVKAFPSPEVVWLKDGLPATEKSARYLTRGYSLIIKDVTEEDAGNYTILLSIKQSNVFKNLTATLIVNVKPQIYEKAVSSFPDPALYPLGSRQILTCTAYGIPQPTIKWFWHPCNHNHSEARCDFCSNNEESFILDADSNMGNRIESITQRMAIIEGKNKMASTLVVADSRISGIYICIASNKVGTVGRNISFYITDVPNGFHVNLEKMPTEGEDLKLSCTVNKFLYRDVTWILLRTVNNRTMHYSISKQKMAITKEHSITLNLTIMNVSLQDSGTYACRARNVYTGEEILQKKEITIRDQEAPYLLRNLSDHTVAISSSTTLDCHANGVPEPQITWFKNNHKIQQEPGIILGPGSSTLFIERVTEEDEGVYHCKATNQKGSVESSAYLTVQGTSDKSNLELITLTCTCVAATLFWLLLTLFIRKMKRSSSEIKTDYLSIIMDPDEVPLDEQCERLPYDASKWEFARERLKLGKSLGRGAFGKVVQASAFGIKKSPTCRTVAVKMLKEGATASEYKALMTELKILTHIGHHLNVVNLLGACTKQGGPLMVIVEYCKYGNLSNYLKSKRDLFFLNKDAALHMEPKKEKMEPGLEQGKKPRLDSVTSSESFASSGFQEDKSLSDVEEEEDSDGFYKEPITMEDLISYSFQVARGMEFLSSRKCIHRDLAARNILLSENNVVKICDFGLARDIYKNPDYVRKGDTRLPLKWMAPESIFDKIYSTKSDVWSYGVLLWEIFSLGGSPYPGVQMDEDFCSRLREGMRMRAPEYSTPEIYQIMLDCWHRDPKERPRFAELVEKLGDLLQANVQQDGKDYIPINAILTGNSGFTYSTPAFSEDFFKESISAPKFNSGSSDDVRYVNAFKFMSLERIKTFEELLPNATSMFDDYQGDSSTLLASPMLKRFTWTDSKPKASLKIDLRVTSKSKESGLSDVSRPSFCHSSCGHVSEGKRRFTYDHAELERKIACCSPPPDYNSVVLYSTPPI

MV4-11 [25] = assay: Induction of apoptosis in human MV4-11 cells incubated for 24 hrs by flow cytometry; type: functional, cell-based
MOLM-13 [26] = assay: Induction of cell cycle arrest in human MOLM-13 cells assessed as accumulation at S phase at 100 nM incubated for 24 hrs by flow cytometry (reference value: 16.28%); type: functional
[27] = Toxicity in mouse xenografted with human MV4-11 cells assessed as effect on liver at 2.5 to 10 mg/kg, po administered for 16 days by hematoxylin and eosin staining assay; type: organism-based; conditions: in vivo, 384 h, dose 2.5-10 mg/kg, time 16 day
MOLM-13 [28] = assay: Induction of cell cycle arrest in human MOLM-13 cells assessed as accumulation at G2/M phase at 1 nM incubated for 24 hrs by flow cytometry (reference value: […]); type: functional
[29] = Toxicity in mouse xenografted with human MV4-11 cells assessed as effect on heart at 2.5 to 10 mg/kg, po administered for 16 days by hematoxylin and eosin staining based assay; type: organism-based; conditions: in vivo, 384 h, dose 2.5-10 mg/kg, time 16 day
[30] = test system: Receptor-type tyrosine-protein kinase FLT3 (Homo sapiens), P36888 [D835H]; assay: Binding affinity to FLT3 D835H mutant (unknown origin) at 1000 nM relative to control
[31] = biological target: Receptor-type tyrosine-protein kinase FLT3 (Homo sapiens) (UniProt P36888); assay: Binding affinity to FLT3 (unknown origin) at 1000 nM relative to control
HepG2 = assay: Antiproliferative activity against human HepG2 cells measured after 72 hrs by CCK8 assay; type: functional, cell-based; conditions: HepG2, 72 h
[32] = biological target: Receptor-type tyrosine-protein kinase FLT3 (Homo sapiens, UniProt P36888, ITD); assay: Inhibition of FLT3 ITD mutant (unknown origin) incubated for 30 mins in presence of ATP by mobility shift assay
MOLM-13 [33] = assay: Induction of apoptosis in human MOLM-13 cells assessed as early apoptotic cells at 1 nM incubated for 24 hrs by flow cytometry (reference value: 2.18%); type: functional
[34] = Toxicity in mouse xenografted with human MOLM-13 cells assessed as effect on liver at 10 to 40 mg/kg, po administered for 20 days by hematoxylin and eosin staining assay; type: organism-based; conditions: in vivo, 480 h, dose 10-40 mg/kg, time 20 day
MOLM-13 [35] = assay: Antiproliferative activity against human sunitinib-resistant MOLM-13 cells at 12 nM incubated for 72 hrs by CCK8 assay relative to control; type: functional
Homo sapiens = species on record: Homo sapiens; assay: Binding affinity to FLT3 ITD D835V mutant (unknown origin) at 1000 nM relative to control
[36] = AUC (0 to last) in Sprague-Dawley rat at 10 mg/kg, po; type: ADME, organism-based; parameters: route oral, time 0 - last, dose 10 mg/kg; conditions: in vivo
MV4-11 [37] = assay: Induction of apoptosis in human MV4-11 cells assessed as late apoptotic cells at 100 nM incubated for 24 hrs by flow cytometry (reference value: 0.58%); type: functional
[38] = Toxicity in mouse xenografted with human MV4-11 cells assessed as effect on kidney at 2.5 to 10 mg/kg, po administered for 16 days by hematoxylin and eosin staining assay; type: organism-based; conditions: in vivo, 384 h, dose 2.5-10 mg/kg, time 16 day

Compound `CCN(CC)CCNC(=O)c1c(C)[nH]c(/C=C2\C(=O)Nc3ccc(F)cc32)c1C` [SUNITINIB] has an Activity (MV4-11 [1]) of 1.71%, a viability at 0.001 µM (MOLM-13 [2]) of 92.5% and a viability at 0.001 µM (MV4-11 [3]) of 98.4%. The Activity (MV4-11 [4]) was 3.91%, the Activity (MOLM-13 [5]) was 1.3% and the Activity (MV4-11 [6]) was 0.32%. It also gave an Activity (MOLM-13 [7]) of 26.6%, an Activity (MV4-11 [8]) of 2.69% and an IC50 (MOLM-13 [9]) of 69.6 nM. For the same compound, the Activity (MOLM-13 [10]) was 0.9%, the Activity (MOLM-13 [11]) was -1.1% and the Activity (MOLM-13 [12]) was 1.14%. It also gave an Activity (MV4-11 [13]) of 0.29%.

For `Cc1c(NC(=O)CCN2CCCC2)c[nH]c1/C=C1\C(=O)Nc2ccc(F)cc21`, the Activity (MV4-11 [1]) was 1.57%, the MRT last [14] was 6.6 h and the Activity [15] was “Dose-Dependent Effect”. The Activity (MV4-11 [16]) was 30.54%, the Activity (MOLM-13 [17]) was “Dose-Dependent Effect” and the AUC(0-inf) [18] was 22700 ng·h/mL. The viability at 0.001 µM (MOLM-13 [2]) was 91.8%, the Activity (MOLM-13 [19]) was “Dose-Dependent Effect” and the Activity (MV4-11 [20]) was “Dose-Dependent Effect”. For the same compound, the Activity [21] was “Non-Toxic”, the viability at 0.001 µM (MV4-11 [3]) was 97.2% and the Activity [22] was “Dose-Dependent Effect”. It also gave an Activity (MV4-11 [4]) of 4.06%, a Cmax [23] of 1880 ng/mL and an Activity (MOLM-13 [5]) of 4.9%. The Activity (MV4-11 [6]) was 1.38%, the IC50 [24] was 120 nM and the Activity (MV4-11 [25]) was “Dose-Dependent Effect”. For the same compound, the Activity (MOLM-13 [26]) was 4.16%, the Activity [27] was “Non-Toxic” and the Activity (MOLM-13 [28]) was 7.13%. The Activity (MOLM-13 [7]) was 60.3%, the Activity [29] was “Non-Toxic” and the Activity [30] was “Active”. For the same compound, the Activity [31] was “Active”, the IC50 (HepG2) was 1690 nM and the Activity (MV4-11 [8]) was 2.41%. The IC50 (MOLM-13 [9]) was 35.5 nM, the IC50 [32] was 0.8 nM and the Activity (MOLM-13 [33]) was 3.69%. For the same compound, the Activity [34] was “Non-Toxic”, the Activity (MOLM-13 [35]) was -2.6% and the Activity (MOLM-13 [10]) was 3.3%. For the same compound, the Activity (Homo sapiens) was “Active”, the AUC(0-t) [36] was 21200 ng·h/mL and the Activity (MOLM-13 [11]) was 2.6%. The Activity (MOLM-13 [12]) was 0.75%, the Activity (MV4-11 [13]) was 0.39% and the Activity (MV4-11 [37]) was 8.73%. The Activity [38] was “Non-Toxic”.
